Several values for one entry are separate records, joined by “and”; a condition that tells them apart may be missing. Equal values may be shown once.
Details: Transpiration method

O=C1C=CC(=O)C=C1 [1,4-benzoquinone]
Crystal
Details	vapor or sublimation pressure
290.2 K	0.01002 kPa
293.4 K	0.01343 kPa
297.5 K	0.02081 kPa
298.5 K	0.02319 kPa
301.4 K	0.03014 kPa
303.1 K	0.03408 kPa
307.3 K	0.05078 kPa
308.3 K	0.0527 kPa
310.2 K	0.06526 kPa
313.3 K	0.07951 kPa
314.1 K	0.08416 kPa
317.3 K	0.1098 kPa
320.1 K	0.1364 kPa
323 K	0.1783 kPa
323.3 K	0.1841 kPa
324.2 K	0.1861 kPa
327.2 K	0.2502 kPa and 0.2417 kPa
328.1 K	0.2659 kPa
330.3 K	0.3065 kPa
333.2 K	0.3846 kPa and 0.3832 kPa
334.2 K	0.4116 kPa
338.1 K	0.5504 kPa
338.2 K	0.5497 kPa and 0.5525 kPa

CC1=CC(=O)C=CC1=O [2,5-cyclohexadiene-1,4-dione, 2-methyl]
Details	vapor or sublimation pressure
282.2 K, Crystal	0.00318 kPa
285.6 K, Crystal	0.00523 kPa and 0.0051 kPa
286.8 K, Crystal	0.00566 kPa
288.5 K, Crystal	0.00664 kPa and 0.00678 kPa
290.8 K, Crystal	0.0091 kPa
295.2 K, Crystal	0.01426 kPa
300.4 K, Crystal	0.02498 kPa
305.3 K, Crystal	0.04235 kPa
310.2 K, Crystal	0.06335 kPa
312.9 K, Crystal	0.08525 kPa
315.2 K, Crystal	0.1054 kPa
317.9 K, Crystal	0.1305 kPa
320.1 K, Crystal	0.1774 kPa
322 K, Crystal	0.2004 kPa
325.1 K, Crystal	0.2769 kPa
327.8 K, Crystal	0.3444 kPa
330.1 K, Crystal	0.4336 kPa
331.6 K, Crystal	0.4466 kPa
332.1 K, Crystal	0.5012 kPa
335.2 K, Crystal	0.6342 kPa
336.7 K, Crystal	0.7271 kPa
343.2 K, Liquid	1.019 kPa
347.2 K, Liquid	1.264 kPa
351.2 K, Liquid	1.552 kPa
355.1 K, Liquid	1.947 kPa
356.8 K, Liquid	2.104 kPa
359.1 K, Liquid	2.373 kPa
363.1 K, Liquid	2.94 kPa
